# Assay results as given in patent US9029389B2 (Institut Pasteur Korea, priority 2011, dated 2015).
# Molecular target: T1, Human 5-lipoxygenase (Homo sapiens, UniProt P09917)
# T1 construct: purchased Cayman 60402; host or cells: insect cells
# T1 sequence (P09917 1-674): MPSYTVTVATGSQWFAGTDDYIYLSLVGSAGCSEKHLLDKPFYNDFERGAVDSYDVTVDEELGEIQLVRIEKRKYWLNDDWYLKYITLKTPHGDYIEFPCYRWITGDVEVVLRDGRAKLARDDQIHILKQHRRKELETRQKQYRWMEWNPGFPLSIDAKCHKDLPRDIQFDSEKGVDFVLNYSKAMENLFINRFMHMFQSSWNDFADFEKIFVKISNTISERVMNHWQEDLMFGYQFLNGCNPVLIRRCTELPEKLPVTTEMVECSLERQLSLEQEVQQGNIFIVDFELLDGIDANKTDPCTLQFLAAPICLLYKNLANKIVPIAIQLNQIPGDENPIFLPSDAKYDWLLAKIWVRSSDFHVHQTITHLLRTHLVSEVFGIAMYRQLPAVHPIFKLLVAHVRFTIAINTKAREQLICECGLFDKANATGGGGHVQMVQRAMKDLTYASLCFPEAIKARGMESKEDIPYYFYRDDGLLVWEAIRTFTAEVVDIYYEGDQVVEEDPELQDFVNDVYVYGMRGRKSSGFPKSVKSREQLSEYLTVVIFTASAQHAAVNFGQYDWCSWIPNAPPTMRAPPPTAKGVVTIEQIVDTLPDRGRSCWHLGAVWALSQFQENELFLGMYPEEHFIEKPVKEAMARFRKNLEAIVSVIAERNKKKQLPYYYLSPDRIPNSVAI
# Test: Activity of compounds against 5-LO enzyme (LTB4 measurement and/or fluorescence method)
# Format: biochemical
# Conditions: 5-LO, single concentration of 10 uM in duplicate
# Outline: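 Two read-outs: LTB4 measured by EIA and/or LC/MS/MS with LTB4-d4 standard after 15 min RT compound preincubation with insect-cell 5-LO and a 5 min 37 °C reaction on 3 uM arachidonic acid (0.1 mM ATP, pH 7.4). The room-temperature fluorescence format used 20 uM H2DCFDA, 100 uM ATP, 3 uM arachidonic acid, 5 min; IC50 from 6/11-point curves.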
row,inhibition at 10 µM [%],Compound
1,< 40,"CCc1nc2ccc(Cl)cn2c1C(=O)NCc1ccn(-c2ccc(F)cc2)n1 [compound 153, 6-Chloro-2-ethyl-N-((1-(4-fluorophenyl)-1H-pyrazol-3-yl)methyl)imidazo[1,2-a]pyridine-3-carboxamide]"
2,40 to 69,"CCc1nc2cc(Cl)ccn2c1C(=O)NCc1ccc(C(C)(C)C)cc1 [compound 92, N-(4-tert-Butylbenzyl)-7-chloro-2-ethylimidazo[1,2-a]pyridine-3-carboxamide]"
3,> 69,"CCc1nc2cc(Cl)ccn2c1C(=O)NCc1ccc(-c2ccccc2C)cc1 [compound 85, 7-Chloro-2-ethyl-N-((2′-methylbiphenyl-4-yl)methyl)imidazo[1,2-a]pyridine-3-carboxamide]"
4,< 40,"CCc1nc2ccc(Cl)cn2c1C(=O)N1CCC(OCc2ccc(C(F)(F)F)cc2)CC1 [compound 334, (6-chloro-2-ethylimidazo[1,2-a]pyridin-3-yl)(4-((4-(trifluoromethyl)benzyl)oxy)piperidin-1-yl)methanone]"
5,40 to 69,"CCc1nc2cc(Cl)ccn2c1C(=O)NCc1ccc(-c2cccc(C#N)c2)cc1 [compound 101, 7-Chloro-N-((3′-cyanobiphenyl-4-yl)methyl)-2-ethylimidazo[1,2-a]pyridine-3-carboxamide]"
6,< 40,"Cc1nc2ccccn2c1C(=O)NCC1CCN(C(=O)OC(C)(C)C)CC1 [compound 10, tert-Butyl 4-((2-methylimidazo[1,2-a]pyridine-3-carboxamido)methyl)piperidine-1-carboxylate]"
7,< 40,"CCc1nc2ccccn2c1CN1CCC(Cn2cc(C(O)(CC)C(F)(F)F)nn2)CC1 (stereo not shown) [compound 351, 2-(1-((1-((2-ethylimidazo[1,2-a]pyridin-3-yl)methyl)piperidin-4-yl)methyl)-1H-1,2,3-triazol-4-yl)-1,1,1-trifluorobutan-2-ol]"
8,< 40,"CCc1nc2ccc(Cl)cn2c1C(=O)NCc1ccc(N2CCN(C(=O)Cc3ccc(F)cc3)CC2)cc1 [compound 320, 6-chloro-2-ethyl-N-(4-(4-(2-(4-fluorophenyl)acetyl)piperazin-1-yl)benzyl)imidazo[1,2-a]pyridine-3-carboxamide]"
9,> 69,"CCc1nc2cc(Cl)ccn2c1C(=O)NCc1ccc(N2CCC(Oc3ccc(OC(F)(F)F)cc3)CC2)cc1 [compound 123, 7-Chloro-2-ethyl-N-(4-(4-(4-(trifluoromethoxy)phenoxy)piperidin-1-yl)benzyl)imidazo[1,2-a]pyridine-3-carboxamide]"
10,< 40,"CCc1nc2cc(Cl)ccn2c1C(=O)NCc1ccn(-c2ccc(F)cc2)n1 [compound 154, 7-Chloro-2-ethyl-N-((1-(4-fluorophenyl)-1H-pyrazol-3-yl)methyl)imidazo[1,2-a]pyridine-3-carboxamide]"
11,40 to 69,"CCc1nc2ccc(Cl)cn2c1C(=O)NCc1ccc(-c2cccc(C)c2)cc1 [compound 76, 6-Chloro-2-ethyl-N-((3′-methylbiphenyl-4-yl)methyl)imidazo[1,2-a]pyridine-3-carboxamide]"
12,> 69,"CCc1nc2cc(Cl)ccn2c1C(=O)NCc1ccc(-n2cc3c(c2)CCCC3)cc1 [compound 217, 7-Chloro-2-ethyl-N-(4-(4,5,6,7-tetrahydro-2H-isoindol-2-yl)benzyl)imidazo[1,2-a]pyridine-3-carboxamide]"
13,40 to 69,"CCc1nc2cc([N+](=O)[O-])ccn2c1C(=O)NCc1ccc(OC(F)(F)F)cc1 [compound 150, 2-Ethyl-7-nitro-N-(4-(trifluoromethoxy)benzyl)imidazo[1,2-a]pyridine-3-carboxamide]"
14,40 to 69,"CCc1nc2cc(Cl)ccn2c1C(=O)NCc1ccc(-c2ccccc2Cl)cc1 [compound 82, 7-Chloro-N-((2′-chlorobiphenyl-4-yl)methyl)-2-ethylimidazo[1,2-a]pyridine-3-carboxamide]"
15,< 40,"CCc1nc2ccc(F)cn2c1C(=O)NCc1ccc(N2CCOCC2)cc1 [compound 241, 2-Ethyl-6-fluoro-N-(4-morpholinobenzyl)imidazo[1,2-a]pyridine-3-carboxamide]"
16,< 40,"CCc1nc2cc(Cl)ccn2c1C(=O)NCc1ccc(N2CCOCC2)c(Cl)c1 [compound 303, 7-Chloro-N-(3-chloro-4-morpholinobenzyl)-2-ethylimidazo[1,2-a]pyridine-3-carboxamide]"
17,< 40,"Cc1nc2ccccn2c1C(=O)NCc1ccc(C(=O)O)cc1 [compound 26, 4-((2-Methylimidazo[1,2-a]pyridine-3-carboxamido)methyl)benzoic acid]"
18,< 40,"CCc1nc2ccc(C)cn2c1C(=O)NCc1ccc(N2CCOCC2)cc1 [compound 315, 2-ethyl-6-methyl-N-(4-morpholinobenzyl)imidazo[1,2-a]pyridine-3-carboxamide]"
19,40 to 69,"CCc1nc2ccc(Cl)cn2c1C(=O)NCc1ccc2[nH]c(-c3ccc(OC(F)(F)F)cc3)nc2c1 [compound 185, 6-Chloro-2-ethyl-N-((2-(4-(trifluoromethoxy)phenyl)-1H-benzo[d]imidazol-5-yl)methyl)imidazo[1,2-a]pyridine-3-carboxamide]"
20,< 40,"CCc1nc2cc(N3CCN(c4ccc(F)cc4)CC3)ccn2c1C(=O)NCc1ccc(N2CCOCC2)cc1 [compound 256, 2-Ethyl-7-(4-(4-fluorophenyl)piperazin-1-yl)-N-(4-morpholinobenzyl)imidazo[1,2-a]pyridine-3-carboxamide]"
21,40 to 69,"CCc1nc2cc(Cl)ccn2c1C(=O)NCc1ccc(-c2ccc(Cl)cc2)cc1 [compound 83, 7-Chloro-N-((4′-chlorobiphenyl-4-yl)methyl)-2-ethyl-2-ethlimidazo[1,2-a]pyridine-3-carboxamide]"
22,40 to 69,"CCc1nc2cc(Cl)ccn2c1C(=O)NCc1ccc(-c2ccc(C(C)(C)C)cc2)cc1 [compound 114, N-((4′-tert-Butylbiphenyl-4-yl)methyl)-7-chloro-2-ethylimidazo[1,2-a]pyridine-3-carboxamide]"
23,< 40,"CCc1nc2ccc(Cl)cn2c1C(=O)N1CCC(OCc2ccc(F)cc2)CC1 [compound 333, (6-chloro-2-ethylimidazo[1,2-a]pyridin-3-yl)(4-((4-fluorobenzyl)oxy)piperidin-1-yl)methanone]"
24,< 40,"Cc1nc2ccc(C#N)cn2c1C(=O)NCc1ccccc1 [compound 30, N-Benzyl-6-cyano-2-methylimidazo[1,2-a]pyridine-3-carboxamide]"
25,40 to 69,"CCOC(=O)C1CCN(c2ccc(CNC(=O)c3c(CC)nc4ccc(Cl)cn34)cc2)CC1 [compound 269, Ethyl1-(4-((6-chloro-2-ethylimidazo[1,2-a]pyridine-3-carboxamido)methyl)phenyl)piperidine-4-carboxylate]"
26,< 40,"CCc1nc2cc(OC)ccn2c1C(=O)NCc1ccc(N2CCN(c3ccc(F)cc3)CC2)cc1 [compound 264, 2-Ethyl-N-(4-(4-(4-fluorophenyl)piperazin-1-yl)benzyl)-7-methoxyimidazo[1,2-a]pyridine-3-carboxamide]"
27,40 to 69,"CCc1nc2cc(Cl)ccn2c1C(=O)NCc1ccc(N2CC3CC=CCC3C2)cc1 (stereo not shown) [compound 202, 7-Chloro-N-(4-(3a,4-dihydro-1H-isoindol-2(3H7H,7aH)-yl)benzyl)-2-ethylimidazo[1,2-a]pyridine-3-carboxamide]"
28,40 to 69,"CCc1nc2cc(Cl)ccn2c1C(=O)NCc1ccc(-c2ccccc2C(F)(F)F)cc1 [compound 102, 7-Chloro-2-ethyl-N-((2′-(trifluoromethyl)biphenyl-4-yl)methyl)imidazo[1,2-a]pyridine-3-carboxamide]"
29,40 to 69,"CCCc1nc2ccccn2c1C(=O)NCc1ccc(-c2ccccc2)cc1 [compound 46, N-(Biphenyl-4-ylmethyl)-2-propylimidazo[1,2-a]pyridine-3-carboxamide]"

# Same assay, conditions: 6 or 11 point dose response in duplicate
row,IC50 [µM],Compound
1,> 20,"CCc1nc2cc(Cl)ccn2c1C(=O)NCc1ccc(N2CCC(Oc3ccc(OC(F)(F)F)cc3)CC2)cc1 [compound 123, 7-Chloro-2-ethyl-N-(4-(4-(4-(trifluoromethoxy)phenoxy)piperidin-1-yl)benzyl)imidazo[1,2-a]pyridine-3-carboxamide]"
2,> 20,"CCc1nc2ncccn2c1C(=O)N1CCC(OCc2ccc(OC(F)(F)F)cc2)CC1 [compound 385, (2-Ethylimidazo[1,2-a]pyrimidin-3-yl)(4-((4-(trifluoromethoxy)benzyl)oxy)piperidin-1-yl)methanone]"
3,1 to 20,"CCc1nc2cc(Cl)ccn2c1C(=O)NCc1ccc(-n2cc3c(c2)CCCC3)cc1 [compound 217, 7-Chloro-2-ethyl-N-(4-(4,5,6,7-tetrahydro-2H-isoindol-2-yl)benzyl)imidazo[1,2-a]pyridine-3-carboxamide]"
4,> 20,"CCc1nc2cnccn2c1C(=O)N1CCC(OCc2ccc(OC(F)(F)F)cc2)CC1 [compound 389, (2-Ethylimidazo[1,2-a]pyrazin-3-yl)(4-((4-(trifluoromethoxy)benzyl)oxy)piperidin-1-yl)methanone]"
5,< 1,"CCc1nc2cc(Cl)ccn2c1C(=O)N1CCC(OCc2ccc(OC(F)(F)F)cc2)CC1 [compound 393, (7-chloro-2-ethylimidazo[1,2-a]pyridin-3-yl)(4-(4-(trifluoromethoxy)benzyloxy)piperidin-1-yl)methanone]"
